{"source": "paper PMC4688006", "about": "(Leukemia & lymphoma, 2015)", "key": {"[1]": {"experiment": "Decitabine plasma pharmacokinetics", "type": "in vivo, human", "details": "for AUC(0-inf) / AUC(0-t) / Cmax: intravenous; for AUC(0-inf): Mean AUCinf (SD); for AUC(0-t): Mean AUCt (SD); for Cmax: Mean Cmax (SD)"}, "patients with AML": {"test_system": "patients with AML", "details": "cited from earlier work; for CR rates: randomized phase III clinical trials"}, "[2]": {"experiment": "Vorinostat serum pharmacokinetics", "type": "in vivo, human", "details": "for AUC(0-inf) / AUC(0-t) / Cmax / half-life: human, oral; for AUC(0-inf): Mean AUCinf (SD); for AUC(0-t): Mean AUCt (SD); for Cmax: Mean Cmax (SD); for half-life: Mean t½ (SD)"}, "[3]": {"test_system": "patients with AML and/or MDS", "details": "cited from earlier work"}, "[4]": {"details": "Concurrent schedule: decitabine 20 mg/m^2/day (n = 6), Day 1, cycle 1"}, "[5]": {"details": "Concurrent schedule: decitabine 20 mg/m^2/day (n = 6), Day 5, cycle 1"}, "[6]": {"details": "Sequential schedule: decitabine 20 mg/m^2/day (n = 3), Day 1, cycle 1"}, "[7]": {"details": "Sequential schedule: decitabine 20 mg/m^2/day (n = 3), Day 5, cycle 1"}, "[8]": {"details": "human, 20 mg/m^2/day, Concurrent schedule: decitabine 20 mg/m^2/day (n = 6), Day 1, cycle 1"}, "[9]": {"details": "human, 20 mg/m^2/day, Concurrent schedule: decitabine 20 mg/m^2/day (n = 6), Day 5, cycle 1"}, "[10]": {"details": "human, 20 mg/m^2/day, Sequential schedule: decitabine 20 mg/m^2/day (n = 3), Day 1, cycle 1"}, "[11]": {"details": "human, 20 mg/m^2/day, Sequential schedule: decitabine 20 mg/m^2/day (n = 3), Day 5, cycle 1"}, "[12]": {"details": "Concurrent schedule, 100 mg bid days 1–21, Day 15 (n = 1)"}, "[13]": {"details": "100 mg, Concurrent schedule, 100 mg bid days 1–21, Day 4 (n = 3)"}, "[14]": {"details": "100 mg, Concurrent schedule, 100 mg bid days 1–21, Day 15 (n = 1)"}, "[15]": {"details": "100 mg, Sequential schedule, 100 mg bid days 6–21 (n = 4), day 9 of cycle 1"}, "[16]": {"details": "200 mg, Concurrent schedule, 200 mg bid days 1–21, Day 4 (n = 10)"}, "[17]": {"details": "200 mg, Concurrent schedule, 200 mg bid days 1–21, Day 15 (n = 7)"}, "[18]": {"details": "200 mg, Concurrent schedule, 200 mg tid days 1–14, Day 4 (n = 7)"}, "[19]": {"details": "200 mg, Sequential schedule, 200 mg bid days 6–21 (n = 4), day 9 of cycle 1"}, "[20]": {"details": "200 mg, Sequential schedule, 200 mg tid days 6–21 (n = 8), day 9 of cycle 1"}}}
{"smiles": "Nc1ncn([C@H]2C[C@H](O)[C@@H](CO)O2)c(=O)n1", "note": "[decitabine, 5-aza-2’-deoxycytidine]", "values": [{"measurement": "Mean CL (SD)", "setting": "[1]; [4]", "value": "202.8 (153.7) L/h/m^2"}, {"measurement": "Mean t^1/2 (SD)", "setting": "[1]; [4]", "value": "0.36 (0.12) h"}, {"measurement": "Mean CL (SD)", "setting": "[1]; [5]", "value": "139.6 (55.1) L/h/m^2"}, {"measurement": "Mean t^1/2 (SD)", "setting": "[1]; [5]", "value": "0.40 (0.17) h"}, {"measurement": "Mean CL (SD)", "setting": "[1]; [6]", "value": "254.8 (134.3) L/h/m^2"}, {"measurement": "Mean t^1/2 (SD)", "setting": "[1]; [6]", "value": "0.36 (0.05) h"}, {"measurement": "Mean CL (SD)", "setting": "[1]; [7]", "value": "226.2 (121.6) L/h/m^2"}, {"measurement": "Mean Cmax (SD)", "setting": "[1]; [7]", "value": "129.9 (87.1) ng/mL"}, {"measurement": "Mean t^1/2 (SD)", "setting": "[1]; [7]", "value": "0.42 (0.18) h"}, {"measurement": "AUC(0-inf)", "setting": "[1]; [8]", "value": 0.152, "unit": "µg·h/mL"}, {"measurement": "AUC(0-inf)", "setting": "[1]; [9]", "value": 0.17, "unit": "µg·h/mL"}, {"measurement": "AUC(0-inf)", "setting": "[1]; [10]", "value": 0.105, "unit": "µg·h/mL"}, {"measurement": "AUC(0-inf)", "setting": "[1]; [11]", "value": 0.111, "unit": "µg·h/mL"}, {"measurement": "AUC(0-t)", "setting": "[1]; [8]", "value": 0.149, "unit": "µg·h/mL"}, {"measurement": "AUC(0-t)", "setting": "[1]; [9]", "value": 0.166, "unit": "µg·h/mL"}, {"measurement": "AUC(0-t)", "setting": "[1]; [10]", "value": 0.102, "unit": "µg·h/mL"}, {"measurement": "AUC(0-t)", "setting": "[1]; [11]", "value": 0.107, "unit": "µg·h/mL"}, {"measurement": "Cmax", "setting": "[1]; [8]", "value": 0.193, "unit": "µg/mL"}, {"measurement": "Cmax", "setting": "[1]; [9]", "value": 0.236, "unit": "µg/mL"}, {"measurement": "Cmax", "setting": "[1]; [10]", "value": 0.137, "unit": "µg/mL"}, {"measurement": "half-life", "setting": "[1]; human, iv, 20 mg/m^2/day", "value": "~0.333", "unit": "h"}, {"measurement": "CR rates", "setting": "patients with AML", "value": "9–18%"}, {"measurement": "overall response rates (ORRs)", "setting": "patients with AML; single agent, three multicenter trials (two phase II, one phase III)", "value": "25–30%"}, {"measurement": "complete response [CR] rate", "setting": "patients with AML; single agent, three multicenter trials", "value": "13–25%"}]}
{"smiles": "Nc1ncn([C@@H]2O[C@H](CO)[C@@H](O)[C@H]2O)c(=O)n1", "note": "[azacitidine]", "values": [{"measurement": "CR rates", "setting": "patients with AML", "value": "9–18%"}]}
{"smiles": "O=C(CCCCCCC(=O)Nc1ccccc1)NO", "note": "[vorinostat, suberoylanilide hydroxamic acid]", "values": [{"measurement": "Mean CL/F (SD)", "setting": "[2]; Concurrent schedule, 100 mg bid days 1–21, Day 4 (n = 3)", "value": "4.35 (1.26) L/min"}, {"measurement": "Mean CL/F (SD)", "setting": "[2]; [12]", "value": 2.74, "unit": "L/min"}, {"measurement": "Mean Cmax (SD)", "setting": "[2]; [12]", "value": 0.2263, "unit": "µg/mL"}, {"measurement": "Mean CL/F (SD)", "setting": "[2]; Concurrent schedule, 200 mg bid days 1–21, Day 4 (n = 10)", "value": "4.02 (1.30) L/min"}, {"measurement": "Mean CL/F (SD)", "setting": "[2]; Concurrent schedule, 200 mg bid days 1–21, Day 15 (n = 7)", "value": "4.70 (2.45) L/min"}, {"measurement": "Mean CL/F (SD)", "setting": "[2]; Concurrent schedule, 200 mg tid days 1–14, Day 4 (n = 7)", "value": "2.86 (0.81) L/min"}, {"measurement": "Mean CL/F (SD)", "setting": "[2]; Sequential schedule, 100 mg bid days 6–21 (n = 4), day 9 of cycle 1", "value": "4.80 (0.79) L/min"}, {"measurement": "Mean CL/F (SD)", "setting": "[2]; Sequential schedule, 200 mg bid days 6–21 (n = 4), day 9 of cycle 1", "value": "5.57 (5.26) L/min"}, {"measurement": "Mean CL/F (SD)", "setting": "[2]; Sequential schedule, 200 mg tid days 6–21 (n = 8), day 9 of cycle 1", "value": "5.89 (4.48) L/min"}, {"measurement": "AUC(0-inf)", "setting": "[2]; [13]", "value": 0.407, "unit": "µg·h/mL"}, {"measurement": "AUC(0-inf)", "setting": "[2]; [14]", "value": 0.609, "unit": "µg·h/mL"}, {"measurement": "AUC(0-inf)", "setting": "[2]; [15]", "value": 0.352, "unit": "µg·h/mL"}, {"measurement": "AUC(0-t)", "setting": "[2]; [13]", "value": 0.4, "unit": "µg·h/mL"}, {"measurement": "AUC(0-t)", "setting": "[2]; [14]", "value": 0.608, "unit": "µg·h/mL"}, {"measurement": "AUC(0-t)", "setting": "[2]; [15]", "value": 0.276, "unit": "µg·h/mL"}, {"measurement": "Cmax", "setting": "[2]; [13]", "value": 0.151, "unit": "µg/mL"}, {"measurement": "Cmax", "setting": "[2]; [15]", "value": 0.117, "unit": "µg/mL"}, {"measurement": "half-life", "setting": "[2]; [13]", "value": 1.04, "unit": "h"}, {"measurement": "half-life", "setting": "[2]; [14]", "value": 0.62, "unit": "h"}, {"measurement": "AUC(0-inf)", "setting": "[2]; [16]", "value": 0.93, "unit": "µg·h/mL"}, {"measurement": "AUC(0-inf)", "setting": "[2]; [17]", "value": 1.01, "unit": "µg·h/mL"}, {"measurement": "AUC(0-inf)", "setting": "[2]; [18]", "value": 1.24, "unit": "µg·h/mL"}, {"measurement": "AUC(0-inf)", "setting": "[2]; [19]", "value": 0.974, "unit": "µg·h/mL"}, {"measurement": "AUC(0-inf)", "setting": "[2]; [20]", "value": 0.91, "unit": "µg·h/mL"}, {"measurement": "AUC(0-t)", "setting": "[2]; [16]", "value": 0.734, "unit": "µg·h/mL"}, {"measurement": "AUC(0-t)", "setting": "[2]; [17]", "value": 0.778, "unit": "µg·h/mL"}, {"measurement": "AUC(0-t)", "setting": "[2]; [18]", "value": 1.06, "unit": "µg·h/mL"}, {"measurement": "AUC(0-t)", "setting": "[2]; [19]", "value": 0.556, "unit": "µg·h/mL"}, {"measurement": "AUC(0-t)", "setting": "[2]; [20]", "value": 0.743, "unit": "µg·h/mL"}, {"measurement": "Cmax", "setting": "[2]; [16]", "value": 0.252, "unit": "µg/mL"}, {"measurement": "Cmax", "setting": "[2]; [17]", "value": 0.246, "unit": "µg/mL"}, {"measurement": "Cmax", "setting": "[2]; [18]", "value": 0.353, "unit": "µg/mL"}, {"measurement": "Cmax", "setting": "[2]; [19]", "value": 0.126, "unit": "µg/mL"}, {"measurement": "Cmax", "setting": "[2]; [20]", "value": 0.263, "unit": "µg/mL"}, {"measurement": "half-life", "setting": "[2]; [17]", "value": 2.34, "unit": "h"}, {"measurement": "half-life", "setting": "[2]; [18]", "value": 2.68, "unit": "h"}, {"measurement": "half-life", "setting": "[2]; [19]", "value": 3.34, "unit": "h"}, {"measurement": "half-life", "setting": "[2]; [20]", "value": 1.65, "unit": "h"}, {"measurement": "MTD", "setting": "[3]; for 14 consecutive days every 21 days", "value": "200 mg bid or 250 mg tid"}, {"measurement": "responses (CR and/or CRi)", "setting": "[3]; single agent", "value": "4.5–10%"}]}
